Assay results taken from US11654161B2, “Compositions and methods for neuralgenesis” (priority 2016, dated 2023).

Columns and labels:
[1] = system: Tyrosine hydroxylase (TH) mRNA; experiment: Real time RT-PCR of BMPS after toxicant exposure: TH; format: cell-based, human; conditions: for TH mRNA expression decreased by: 24 hours, 5 μM rotenone, 1000 E M MPP+; for TH gene expression compared to controls: BMPS treated with rotenone or MPP+
Experimental: (§1) Total RNA was extracted from aggregates every week up to 8 weeks of differentiation using Tripure (Roche, Switzerland) according to Chomczynski and Sacchi (1987). The same RNA extraction method was used to isolate RNA after toxicant treatment. RNA quantity and purity was determined using NanoDrop 2000c (Thermo Scientific). One microgram of RNA was reverse-transcribed using the M-MI V Promega Reverse Transcriptase (Promega) according to the manufacturer's recommendations. For miRNA reverse-transcription 60 ng of RNA were reverse transcribed using TaqMan microRNA Reverse transcription kit in combination with miRNA specific stem-loop primers, which are a part of TaqMAn microRNA expression assay. Upto eight stem-loop primers were multiplexed in one reaction.
(§2) The expression of genes was evaluated using specific Taqman® gene expression assays (Life Technologies). miRNA expression was analyzed using TaqMAn microRNA expression assay in combination with TaqMan miRNA Reverse Transcription kit using protocol described in [77]. […] Real time RT-PCRs were performed using a 7500 Fast Real Time system machine (Applied Biosystems). Fold changes were calculated using the 2(−ΔΔCt) method. β-actin and 18s were used as a housekeeping genes for mRNA and RNU44 for miRNA. There were no statistically significant differences in expression for β-actin, 18s, and RNU44. Data were presented as mean±SD, normalized to housekeeping genes and week 0.

[2] = system: Reactive oxygen species (ROS); experiment: OxiSelect In Vitro ROS/RNS Assay in cellular medium of BMPS; format: cell-based, human; conditions: 5 μM rotenone, 1000 μM MPP+
Text: This is a fluorescence-based assay measuring the presence of total free radicals within a sample and was used according to the manufacturer's protocol. The quenched fluorogenic dye dichlorodihydrofluorescin-DiOxyQ (DCFH-DiOxyQ) which is similar to the popular 2′,7′-dichlorodihydrofluorescein diacetate (DCFH-DA) is first primed with a quench removal reagent. The resulted highly reactive non-fluorescent DCFH can react with present ROS species in the cell supernatant and is then oxidized to the highly fluorescent DCF (2′,7′-dichlorodihydroxyfluorescein). At every time point, 50 μl of the cell supernatant was added to a 96-well plate in triplicates and was mixed and incubated with the DCFH-DiOxyQ for 45 minutes. The fluorescence intensity was measured with a fluorescence microplate reader at 480 nm/530 nm (excitation/emission) and was proportional to the total ROS/RNS levels within the sample.

[3] = system: Caspase-1 (CASP1); experiment: Real time RT-PCR of BMPS after toxicant exposure: Caspase-1; format: cell-based, human
Experimental: as §1
as §2, with “Data were presented as mean±SD, normalized to housekeeping genes and week 0.” left out

[4] = system: BMPS; experiment: Resazurin reduction cytotoxicity assay of BMPS after rotenone and MPP+ treatment; format: cell-based, human; conditions: 24 h exposure
Experimental: DMSO was used as vehicle control. MPP+ working solutions were prepared in differentiation medium from 30 mM stocks to reach final concentrations of 10, 50, 100, 500, 1,000, 5,000 and 10,000 μM. Four independent experiments in 3 replicates were performed for each experimental condition (control and toxicant exposure for the different time points). […] Resazurin (7-Hydroxy-3H-phenoxazin-3-one 10-oxide) is a blue dye that is reduced into red fluorescent resorufin by redox reactions in viable cells. 100 μl Resazurin (2 mg/ml stock) were added directly to the 6 well plates (2 ml/well). Plates were incubated for 3 h at 37° C., 5% CO2. Subsequently, 50 μl of medium were transferred from each well in triplicates to a 96-well plate and fluorescence was measured at 530 nm/590 nm (excitation/emission) using a multi-well fluorometric reader CytoFluor series 4000 (PerSeptive Biosystems, Inc). Data were presented as mean±SD. Statistical analysis was performed using Dunnett's test.

[5] = system: T-box brain 1 (TBR1); experiment: Real time RT-PCR of BMPS after toxicant exposure: TBR1; format: cell-based, human; conditions: for reduction of TBR1 gene expression: 24 hours exposure, sub-cytotoxic concentrations; for TBR1 gene expression: non-cytotoxic concentrations
Experimental: as §1, §2

[6] = system: Alpha-synuclein (SNCA); experiment: Real time RT-PCR of BMPS after toxicant exposure: SNCA; format: cell-based, human; conditions: for reduction of SNCA gene expression: 24 hours exposure, sub-cytotoxic concentrations
Experimental: as §1, §2

[7] = system: dopaminergic neurons; conditions: for Alterations in other neurofilament 200-positive neurons: cytotoxic concentrations: 10 μM rotenone; for General cytotoxicity and effect on other neuronal types at higher concentrations: up to 50 μM rotenone, up to 5000 μM MPP+
Experimental: Initially, cytotoxicity experiments were performed to estimate sub-cytotoxic concentrations of these two compounds affecting only dopaminergic neurons (FIGS. 4A and 4C). […] Reactive oxygen species (ROS) were measured in the cellular medium using the OxiSelect™ In Vitro ROS/RNS Assay Kit (Cellbiolabs, San Diego, Calif.) as an indication of oxidative stress. […] Real time RT-PCR was performed in order to determine effects of both chemicals on genes related to PD, mitochondrial dysfunction and oxidative stress.
BMPS aggregates were collected at 2, 4 and 8 weeks. BMPS were fixed in 4% paraformaldehyde for 1 hour, washed 3 times in PBS, then incubated for 1 hour in blocking solution consisting of 5% normal goat serum (NGS) in PBS with 0.4% TritonX (Sigma). BMPS were then incubated at 4° C. for 48 hours with a combination of primary antibodies (Table 2) diluted in PBS containing 3% NGS and 0.1% TritonX. BMPS were washed in PBS 3 times after which they were incubated with the appropriate fluorophore-tagged secondary antibody for 1 hour in PBS with 3% NGS at room temperature. Double immunostaining was visualized using the proper combination of secondary antibodies (e.g., goat anti-rabbit secondary antibody conjugated with Alexa 594 and goat anti-mouse secondary antibody conjugated with Alexa 488 (Molecular Probes). Nuclei were counterstained with DRAQ5 dye (Cell Signaling; 1:5000 in 1×PBS) or NucRed Live (Molecular Probes) for 15 minutes before mounted on slides with coverslips and Prolong Gold antifade reagent (Molecular Probes); BMPS used as negative controls for immunostaining were processed omitting the primary antibody. Images were taken using a Zeiss UV-LSM 510 confocal microscope. The experiments were performed in duplicates; at least three different fields of view were analyzed for each combination of antibodies. 3D reconstruction was done using Imaris 7.6.4 software for scientific imaging.

[8] = system: PD-related genes (TH, TBR1, SNCA, KEAP1, NDUFB1, ATP5C1, ATP50 and CASP1); experiment: Real time RT-PCR of BMPS after toxicant exposure: PD-related gene panel; format: cell-based, human; conditions: 5 μM rotenone, 1 mM MPP+
Text: Induced pluripotent stem cells (iPSC)-derived human-relevant microphysiological systems (MPS) better mimic the organ level, but are too complex for chemical and drug screening. As described herein, a reproducible 3D brain MPS (BMPS) that differentiates into mature neurons and glial cells (astrocytes and oligodendrocytes), which reproduces the topology of neuronal-glial interactions and connectivity in the central nervous system was developed. […]
(§3) Total RNA was extracted from aggregates every week up to 8 weeks of differentiation using Tripure (Roche, Switzerland) according to Chomczynski and Sacchi (1987). […] RNA quantity and purity was determined using NanoDrop 2000c (Thermo Scientific). […]
(§4) The expression of genes was evaluated using specific Taqman® gene expression assays (Life Technologies). miRNA expression was analyzed using TaqMAn microRNA expression assay in combination with TaqMan miRNA Reverse Transcription kit using protocol described in [77]. […] Fold changes were calculated using the 2(−ΔΔCt) method. β-actin and 18s were used as a housekeeping genes for mRNA and RNU44 for miRNA. […]

[9] = system: NDUFB1, ATP5C1, ATP50; experiment: Real time RT-PCR of BMPS after toxicant exposure: mitochondrial function genes; format: cell-based, human; conditions: for Expression of genes related to mitochondrial function (NDUFB1, ATP5C1, ATP50): 24 hours exposure, 5 μM rotenone, 1000 μM MPP+; for Mitochondrial function genes (NDUFB1, ATP5C1, ATP50), MPP+ versus rotenone: BMPS treated with MPP+ or rotenone
Experimental: as §1, §2

[10] = system: KEAP1; experiment: Real time RT-PCR of BMPS after toxicant exposure: KEAP1; format: cell-based, human; conditions: 24 h exposure to 1 mM MPP+
Text: In one embodiment, the model described herein is useful for studying Parkinson's disease (PD). Traditionally, PD has been described as a pre-synaptic degenerative process that affects dopaminergic neurons and induces a fundamental motor disorder, however, non-motor symptoms can also be present. Research in Parkinson's disease is experiencing an upswing at the moment, owing to a lack of curative drugs for the large number of patients. […] These model toxins are mainly used in mice and primates (and less in cell cultures) to model a disease state resembling PD. Human neurons, which would be most relevant, are not usually available and existing cell lines are only very poor substitutes. […]
as §3, §4

[11] = system: Down's syndrome model; experiment: Down's syndrome BMPS exposed to compounds that induce oxidative stress, compared to healthy donor model; conditions: Down's syndrome iPSC-derived model
Text: FIG. 5A depicts morphological characterization with immunostaining of neurons (MAP2, Syn1, TH, SYP), neural precursor cells (nestin) and glial cells (GFAP) at 8 weeks of differentiation.

SMILES	TH mRNA expression decreased by [1]	TH gene expression compared to controls [1]	ROS production ([2]; 12 hours exposure)	ROS production ([2]; 24 hours exposure)	cytotoxic concentrations [4]	reduction of TBR1 gene expression [5]	TBR1 gene expression [5]	reduction of SNCA gene expression [6]	Alterations in other neurofilament 200-positive neurons ([7]; 1000 μM MPP+)	General cytotoxicity and effect on other neuronal types at higher concentrations [7]	Expression of PD-related genes [8]	Expression of genes related to mitochondrial function (NDUFB1, ATP5C1, ATP50) [9]	Mitochondrial function genes (NDUFB1, ATP5C1, ATP50), MPP+ versus rotenone [9]	further results
C[n+]1ccc(-c2ccccc2)cc1 [MPP+, 1-methyl-4-phenylpyridinium]	70%±9	decreased TH gene expression compared to controls	no statistically significant changes	increase in ROS production	1000 µM	76±22%	down-regulated	41±40%	did not show any alterations in other neurofilament 200-positive neurons	led to general cytotoxicity and affected also other neuronal types stained positive for neurofilament 200	altered expression of PD-related genes	tended to decrease in expression but these changes were not statistically significant	down-regulated, more strongly	Caspase-1 (CASP1) expression ([3]; 24 h exposure to 1 NM MPP+): increased significantly; Caspase-1 gene expression ([3]; 24 hours exposure to MPP+): increased; Statistical significance of change in SNCA expression ([6]; BMPS exposed to 1 mM MPP+): no statistically significant changes in SNCA expression; Disruption of dopaminergic neurons observed by immunohistochemistry ([7]; 5 μM rotenone, 100 μM MPP+): disrupted dopaminergic neurons; Dopaminergic effects at concentrations selected for further studies ([7]; 5 μM rotenone, 1000 μM MPP+): induced clear and selective dopaminergic effects; Selective disruption of dopaminergic neurons but not of any other cell types (immunohistochemistry) ([7]; 24 h, 1p M rotenone, 100 μM MPP+, BMPS differentiated 4 weeks): Selective disruption of dopaminergic neurons but not of any other cell types; Degeneration of dopaminergic neurons ([7]; treatment of BMPS (FIGS. 4E and 4F)): induced specific degeneration of dopaminergic neurons; KEAP1 expression (oxidative stress marker) [10]: increase in KEAP1 expression
C[n+]1ccc(-c2cc[n+](C)cc2)cc1 [paraquat]	–	–	–	–	–	–	–	–	–	–	–	–	–	Response of Down's syndrome model compared to model from healthy donors [11]: more sensitive to these compounds than the healthy model
C=C(C)[C@H]1Cc2c(ccc3c2O[C@@H]2COc4cc(OC)c(OC)cc4[C@@H]2C3=O)O1 [rotenone]	84%±11	decreased TH gene expression compared to controls	no statistically significant changes	increase in ROS production	10 µM	70±13%	down-regulated	72±6%	did not show any alterations in other neurofilament 200-positive neurons	led to general cytotoxicity and affected also other neuronal types stained positive for neurofilament 200	altered expression of PD-related genes	tended to decrease in expression but these changes were not statistically significant	down-regulated	SNCA gene expression ([6]; 5 μM rotenone, 1 mM MPP+): Reduction of SNCA
